Data: patent US11566007B2, “Ras inhibitors” (Revolution Medicines, Inc., priority 2019, dated 2023)

What was measured:
NRAS Q61R = NRAS Q61R (Homo sapiens (Human), UniProt P01111+P62937, Q61R); assay: Ras-Raf (BRAF RBD) disruption / FRET / MOA assay, NRAS Q61R; assay type: biochemical; conditions: NRAS Q61R; Ras-Raf disruption/FRET/MOA assay; read-out: IC50* NRAS Q61R FRET data
Outline: (§1)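 TR-FRET disruption of nucleotide-loaded Ras binding to BRAF RBD via compound-driven ternary complex with cyclophilin A. Compound as 10-point 3-fold series from 30 μM final, 3 h at 25° C, then anti-His Eu-W1024 (10 nM) and anti-GST allophycocyanin (50 nM) for 1.5 h. IC50 from decreased FRET ratio versus DMSO.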

KRAS G12S = KRAS G12S (Homo sapiens (Human), UniProt P01116+P62937, G12S); assay: Ras-Raf (BRAF RBD) disruption / FRET / MOA assay, KRAS G12S; assay type: biochemical; conditions: Ras-Raf disruption/FRET/MOA assay; class symbols; read-out: KRAS G12S FRET data IC50
Sequence of KRAS G12S (P01116-2 other isoform, or with tags, fused parts or gaps G12S): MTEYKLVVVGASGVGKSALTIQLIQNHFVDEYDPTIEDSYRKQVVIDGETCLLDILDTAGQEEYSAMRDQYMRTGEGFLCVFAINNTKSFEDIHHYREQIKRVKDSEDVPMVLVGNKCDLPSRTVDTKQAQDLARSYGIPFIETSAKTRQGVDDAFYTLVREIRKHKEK
Sequence of KRAS G12S (P62937 whole entry): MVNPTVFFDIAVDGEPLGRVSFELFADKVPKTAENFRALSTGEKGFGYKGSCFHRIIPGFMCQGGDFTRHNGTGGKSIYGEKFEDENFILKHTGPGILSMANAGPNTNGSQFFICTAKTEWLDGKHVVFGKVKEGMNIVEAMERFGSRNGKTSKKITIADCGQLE
Outline: (§2)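 Compounds, top final concentration 30 μM in 10-point 3-fold series, incubated 3 hours at 25° C with nucleotide-loaded Ras, cyclophilin A and BRAF RBD.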

KRAS Q61H = KRAS Q61H (Homo sapiens (Human), UniProt P01116+P62937, Q61H); assay: Ras-Raf (BRAF RBD) disruption / FRET / MOA assay, KRAS Q61H; assay type: biochemical; conditions: Ras-Raf disruption/FRET/MOA assay; class symbols; read-out: KRAS Q61H FRET data IC50
Sequence of KRAS Q61H (P01116-2 other isoform, or with tags, fused parts or gaps Q61H): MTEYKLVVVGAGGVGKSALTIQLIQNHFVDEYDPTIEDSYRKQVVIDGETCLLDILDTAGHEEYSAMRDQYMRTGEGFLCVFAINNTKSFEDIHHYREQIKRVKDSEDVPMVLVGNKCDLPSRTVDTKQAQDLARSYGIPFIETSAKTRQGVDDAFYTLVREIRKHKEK
Sequence of KRAS Q61H (P62937 whole entry): as the sequence (P62937 whole entry) above
Outline: as §1

NCI-H358 (K-Ras G12C) = assay: CellTiter-Glo cell viability assay, NCI-H358; assay type: cell-based, human; conditions: Homo sapiens, NCI-H358, 120 h, NCI-H358, 5-day treatment; class symbols; read-out: Additional H358 Cell Viability assay data (K-Ras G12C, IC50)
Outline: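 Steps: compound dispensed into wells holding cells; incubation to day 5; ~30 min room-temperature equilibration; luminescence read; sample signal divided by mean DMSO signal, times 100; four-parameter logistic curve fit.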

KRAS G12V = KRAS G12V (Homo sapiens (Human), UniProt P01116+P62937, G12V); assay: Ras-Raf (BRAF RBD) disruption / FRET / MOA assay, KRAS G12V; assay type: biochemical; conditions: read-out: IC50* KRAS G12V FRET data
Sequence of KRAS G12V (P01116-2 other isoform, or with tags, fused parts or gaps G12V): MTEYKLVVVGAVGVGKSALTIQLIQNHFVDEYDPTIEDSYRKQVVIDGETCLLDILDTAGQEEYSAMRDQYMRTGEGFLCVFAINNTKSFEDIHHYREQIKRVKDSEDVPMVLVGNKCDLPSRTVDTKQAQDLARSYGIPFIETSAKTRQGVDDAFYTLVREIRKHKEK
Sequence of KRAS G12V (P62937 whole entry): as the sequence (P62937 whole entry) above
Outline: as §2

K-Ras G12C = K-Ras G12C (Homo sapiens (Human), UniProt P01116+P62937, G12C); assay: Ras-Raf (BRAF RBD) disruption / FRET / MOA assay, KRAS G12C; assay type: biochemical; conditions: KRAS G12C; Ras-Raf disruption/FRET/MOA assay; read-out: IC50* KRAS G12C FRET data
Sequence of K-Ras G12C (P01116-2 other isoform, or with tags, fused parts or gaps G12C): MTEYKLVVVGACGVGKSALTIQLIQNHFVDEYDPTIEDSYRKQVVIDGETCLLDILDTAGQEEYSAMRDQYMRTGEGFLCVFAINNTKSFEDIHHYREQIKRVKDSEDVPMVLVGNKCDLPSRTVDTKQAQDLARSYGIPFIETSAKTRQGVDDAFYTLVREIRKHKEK
Sequence of K-Ras G12C (P62937 whole entry): as the sequence (P62937 whole entry) above
Outline: as §2

KRAS WT = KRAS WT (Homo sapiens (Human), UniProt P01116+P62937); assay: Ras-Raf (BRAF RBD) disruption / FRET / MOA assay, KRAS WT; assay type: biochemical; conditions: read-out: IC50* KRAS WT FRET data
Sequence of KRAS WT (P01116-2 other isoform, or with tags, fused parts or gaps): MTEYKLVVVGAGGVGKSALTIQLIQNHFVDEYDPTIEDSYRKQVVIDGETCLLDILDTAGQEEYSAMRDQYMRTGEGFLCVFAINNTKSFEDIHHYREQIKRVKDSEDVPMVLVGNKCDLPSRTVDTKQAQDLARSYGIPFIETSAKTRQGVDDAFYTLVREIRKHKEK
Sequence of KRAS WT (P62937 whole entry): as the sequence (P62937 whole entry) above
Outline: as §2

KRAS G12D = KRAS G12D (Homo sapiens (Human), UniProt P01116+P62937, G12D); assay: Ras-Raf (BRAF RBD) disruption / FRET / MOA assay, KRAS G12D; assay type: biochemical; conditions: Ras-Raf disruption/FRET/MOA assay; class symbols; read-out: KRAS G12D FRET data IC50
Sequence of KRAS G12D (P01116-2 other isoform, or with tags, fused parts or gaps G12D): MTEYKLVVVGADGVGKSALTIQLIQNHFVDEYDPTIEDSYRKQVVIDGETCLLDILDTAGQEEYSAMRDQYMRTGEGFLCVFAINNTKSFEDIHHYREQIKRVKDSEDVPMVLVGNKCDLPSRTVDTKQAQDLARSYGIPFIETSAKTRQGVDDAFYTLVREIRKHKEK
Sequence of KRAS G12D (P62937 whole entry): as the sequence (P62937 whole entry) above
Outline: as §2

NRAS WT = NRAS WT (Homo sapiens (Human), UniProt P01111+P62937); assay: Ras-Raf (BRAF RBD) disruption / FRET / MOA assay, NRAS WT; assay type: biochemical; conditions: read-out: IC50* NRAS WT FRET data
Sequence of NRAS WT (P01111 whole entry): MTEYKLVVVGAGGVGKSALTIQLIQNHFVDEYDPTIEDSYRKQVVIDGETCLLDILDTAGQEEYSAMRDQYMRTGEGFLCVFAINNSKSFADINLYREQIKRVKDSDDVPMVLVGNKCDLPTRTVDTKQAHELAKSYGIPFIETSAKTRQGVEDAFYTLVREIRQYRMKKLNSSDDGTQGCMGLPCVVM
Sequence of NRAS WT (P62937 whole entry): as the sequence (P62937 whole entry) above
Outline: as §1

K-Ras G13C = K-Ras G13C (Homo sapiens (Human), UniProt P01116+P62937, G13C); assay: Ras-Raf (BRAF RBD) disruption / FRET / MOA assay, KRAS G13C; assay type: biochemical; conditions: KRAS G13C; Ras-Raf disruption/FRET/MOA assay; read-out: IC50* KRAS G13C FRET data
Sequence of K-Ras G13C (P01116-2 other isoform, or with tags, fused parts or gaps G13C): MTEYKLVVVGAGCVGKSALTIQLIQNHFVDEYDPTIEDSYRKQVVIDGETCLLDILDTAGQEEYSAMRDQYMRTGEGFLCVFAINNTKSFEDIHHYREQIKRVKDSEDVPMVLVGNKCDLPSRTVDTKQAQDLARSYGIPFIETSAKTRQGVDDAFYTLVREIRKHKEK
Sequence of K-Ras G13C (P62937 whole entry): as the sequence (P62937 whole entry) above
Outline: as §2

NRAS G12C = NRAS G12C (Homo sapiens (Human), UniProt P01111+P62937, G12C); assay: Ras-Raf (BRAF RBD) disruption / FRET / MOA assay, NRAS G12C; assay type: biochemical; conditions: read-out: IC50* NRAS G12C FRET data
Sequence of NRAS G12C (P01111 whole entry G12C): as the sequence (P01111 whole entry) above, with G12C counted along it
Sequence of NRAS G12C (P62937 whole entry): as the sequence (P62937 whole entry) above
Outline: as §2

KRAS G13D = KRAS G13D (Homo sapiens (Human), UniProt P01116+P62937, G13D); assay: Ras-Raf (BRAF RBD) disruption / FRET / MOA assay, KRAS G13D; assay type: biochemical; conditions: read-out: IC50* KRAS G13D FRET data
Sequence of KRAS G13D (P01116-2 other isoform, or with tags, fused parts or gaps G13D): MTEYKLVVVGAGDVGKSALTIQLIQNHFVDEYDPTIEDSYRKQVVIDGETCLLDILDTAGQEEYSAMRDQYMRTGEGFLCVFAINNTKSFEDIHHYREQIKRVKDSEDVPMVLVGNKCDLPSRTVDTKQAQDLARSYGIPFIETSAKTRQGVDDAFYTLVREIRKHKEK
Sequence of KRAS G13D (P62937 whole entry): as the sequence (P62937 whole entry) above
Outline: as §2

Sequence of NRAS Q61R (P01111 whole entry Q61R): as the sequence (P01111 whole entry) above, with Q61R counted along it
Sequence of NRAS Q61R (P62937 whole entry): as the sequence (P62937 whole entry) above

Row | Structure (SMILES) | IC50 (NRAS Q61R) [nM] | IC50 (KRAS G12S) [nM] | IC50 (KRAS Q61H) [nM] | IC50 (NCI-H358 (K-Ras G12C)) [nM] | IC50 (KRAS G12V) [nM] | IC50 (K-Ras G12C) [nM] | IC50 (KRAS WT) [nM] | IC50 (KRAS G12D) [nM] | IC50 (NRAS WT) [nM] | IC50 (K-Ras G13C) [nM] | IC50 (NRAS G12C) [nM] | IC50 (KRAS G13D) [nM]
1 | C=CC(=O)N1CCOC2(CCN(C(=O)N(C)[C@H](C(=O)N[C@H]3Cc4cc(CF)cc(c4)-c4ccc5c(c4)c(c(-c4cccnc4[C@H](C)OC)n5CC(F)(F)F)CC(C)(C)COC(=O)[C@@H]4CCCN(N4)C3=O)C(C)C)CC2)C1 (atropisomer, axis not shown) [Example A605] | 100 to 1000 | 100 to 1000 | 10 to 100 | 10 to 100 | 100 to 1000 | 100 to 1000 | 10 to 100 | 100 to 1000 | 10 to 100 | 10 to 100 | 100 to 1000 | 100 to 1000
2 | C=CC(=O)N1CCOC2(CCN(C(=O)N(C)[C@H](C(=O)N[C@H]3Cc4cccc(c4)-c4ccc5c(c4)c(c(-c4cccnc4[C@H](C)OC)n5CC(F)(F)F)CC(C)(C)COC(=O)[C@@H]4CCCN(N4)C3=O)C(C)C)CC2)C1 (atropisomer, axis not shown) [Example A608] | 100 to 1000 | 100 to 1000 | 10 to 100 | 10 to 100 | 100 to 1000 | 100 to 1000 | 100 to 1000 | 100 to 1000 | 100 to 1000 | 10 to 100 | 100 to 1000 | 100 to 1000
3 | C=CC(=O)N1CCC[C@@H]2CN(C(=O)N(C)[C@H](C(=O)N[C@H]3Cc4nc(cs4)-c4ccc5c(c4)c(c(-c4cccnc4[C@H](C)OC)n5CC)CC(C)(C)COC(=O)[C@@H]4CCCN(N4)C3=O)C(C)C)C[C@@H]21 (atropisomer, axis not shown) [Example A619] | 100 to 1000 | 1000 to 10000 | 100 to 1000 | 10 to 100 | 1000 to 10000 | 100 to 1000 | 1000 to 10000 | 1000 to 10000 | 1000 to 10000 | 100 to 1000 | 100 to 1000 | 1000 to 10000
4 | CCn1c(-c2cccnc2[C@H](C)OC)c2c3cc(ccc31)-c1csc(n1)C[C@H](NC(=O)[C@H](C(C)C)N(C)C(=O)N1CCC3(CC1)CN(C(=O)/C=C/CF)C3)C(=O)N1CCC[C@H](N1)C(=O)OCC(C)(C)C2 (atropisomer, axis not shown) [Example A622] | 100 to 1000 | 100 to 1000 | 10 to 100 | 10 to 100 | 100 to 1000 | 10 to 100 | 100 to 1000 | 100 to 1000 | 100 to 1000 | 10 to 100 | 10 to 100 | 100 to 1000
5 | CCn1c(-c2cccnc2[C@H](C)OC)c2c3cc(ccc31)-c1csc(n1)C[C@H](NC(=O)[C@@H](F)COC1CN(C(=O)C#CC(C)(C)N(C)C)C1)C(=O)N1CCC[C@H](N1)C(=O)OCC(C)(C)C2 (atropisomer, axis not shown) [Example A626] | 1000 to 10000 | 1000 to 10000 | 100 to 1000 | 10 to 100 | 1000 to 10000 | < 10 | 1000 to 10000 | 1000 to 10000 | 1000 to 10000 | 1000 to 10000 | < 10 | 1000 to 10000
6 | CO[C@@H](C)c1ncccc1-c1c2c3cc(ccc3n1CC(F)(F)F)N1CCO[C@@H](C[C@H](NC(=O)[C@H](C(C)C)N3CC[C@@]4(CCN(C(=O)C#CC(C)(C)N(C)C)C4)C3=O)C(=O)N3CCC[C@H](N3)C(=O)OCC(C)(C)C2)C1 (atropisomer, axis not shown) [Example A628] | > 10000 | 1000 to 10000 | > 10000 | 10 to 100 | 1000 to 10000 | < 10 | > 10000 | > 10000 | > 10000 | 1000 to 10000 | < 10 | > 10000
7 | C=CC(=O)N(C)CCN1CCN(C(=O)N(C)[C@H](C(=O)N[C@H]2Cc3nc(cs3)-c3ccc4c(c3)c(c(-c3cccnc3[C@H](C)OC)n4CC)CC(C)(C)COC(=O)[C@@H]3CCCN(N3)C2=O)C(C)C)CC1 (atropisomer, axis not shown) [Example A630] | 100 to 1000 | 100 to 1000 | 100 to 1000 | 10 to 100 | 100 to 1000 | 100 to 1000 | 100 to 1000 | 1000 to 10000 | 100 to 1000 | 10 to 100 | 100 to 1000 | 1000 to 10000
8 | C=CC(=O)N(C)[C@H]1CN(C(=O)N(C)[C@H](C(=O)N[C@H]2Cc3nc(cs3)-c3ccc4c(c3)c(c(-c3cccnc3[C@H](C)OC)n4CC)CC(C)(C)COC(=O)[C@@H]3CCCN(N3)C2=O)C(C)C)C[C@H]1F (atropisomer, axis not shown) [Example A631] | 100 to 1000 | 100 to 1000 | 10 to 100 | < 10 | 100 to 1000 | 100 to 1000 | 100 to 1000 | 1000 to 10000 | 100 to 1000 | 100 to 1000 | 10 to 100 | 100 to 1000
9 | C=CC(=O)N1CC[C@H](C(=O)N(C)[C@@H](CC(F)(F)F)C(=O)N[C@H]2Cc3cccc(c3)-c3ccc4c(c3)c(c(-c3cccnc3[C@H](C)OC)n4CC)CC(C)(C)COC(=O)[C@@H]3CCCN(N3)C2=O)C1 (atropisomer, axis not shown) [Example A639] | 1000 to 10000 | 1000 to 10000 | 1000 to 10000 | 100 to 1000 | 1000 to 10000 | 100 to 1000 | 1000 to 10000 | > 10000 | 1000 to 10000 | 1000 to 10000 | 100 to 1000 | > 10000
10 | CCn1c(-c2cccnc2[C@H](C)OC)c2c3cc(ccc31)N1CCO[C@@H](C[C@H](NC(=O)[C@@H](COC3CCN(C(=O)C#CC(C)(C)N(C)C)CC3)C(C)C)C(=O)N3CCC[C@H](N3)C(=O)OCC(C)(C)C2)C1 (atropisomer, axis not shown) [Example A643, (2R)-2-(((1-(4-(dimethylamino)-4-methylpent-2-ynoyl)piperidin-4-yl)oxy)methyl)-N-((2^2S,6^3S,4S)-1^1-ethyl-1^2-(2-((S)-1-methoxyethyl)pyridin-3-yl)-10,10-dimethyl-5,7-dioxo-6^1,6^2,6^3,6^4,6^5,6^6-hexahydro-1^1H-8-oxa-2(4,2)-morpholina-1(5,3)-indola-6(1,3)-pyridazinacycloundecaphane-4-yl)-3-methylbutanamide] | > 10000 | > 10000 | > 10000 | < 10 | > 10000 | 10 to 100 | > 10000 | > 10000 | > 10000 | 1000 to 10000 | 10 to 100 | > 10000
11 | CCn1c(-c2cccnc2[C@H](C)OC)c2c3cc(ccc31)-c1cccc(c1)C[C@H](NC(=O)[C@@H](COC1CN(C(=O)C#C[C@H]3COCCN3C)C1)C(C)C)C(=O)N1CCC[C@H](N1)C(=O)OCC(C)(C)C2 (atropisomer, axis not shown) [Example A644] | > 10000 | > 10000 | > 10000 | < 10 | > 10000 | 10 to 100 | > 10000 | > 10000 | > 10000 | 1000 to 10000 | 10 to 100 | > 10000
12 | CCn1c(-c2cccnc2[C@H](C)OC)c2c3cc(ccc31)-c1cccc(c1)C[C@H](NC(=O)[C@@H](COC1CN(C(=O)C#C[C@@H]3OCCCN3C)C1)C(C)C)C(=O)N1CCC[C@H](N1)C(=O)OCC(C)(C)C2 (atropisomer, axis not shown) [Example A648] | > 10000 | > 10000 | > 10000 | 10 to 100 | > 10000 | 100 to 1000 | 1000 to 10000 | > 10000 | 1000 to 10000 | 1000 to 10000 | 100 to 1000 | > 10000
